# From patent US9498495B2, “Methods for in vitro differentiation of TH-17+ cells” (New York University, priority 2008, dated 2016)
# Tests used:
# Format in all cases: cell-based, human
# [1] = system: Cord blood CD4+ T cells transduced with RORγT; assay: IL-17 and FOXP3 expression following RORγT transduction of cord blood CD4+ T cells (intracellular staining); conditions: for effect on the suppression of IL-17 production induced by TGF-β: RORγT-transduced cells, with TGF-β; for increase of the proportion of IL-17-producing cells after forced expression of RORγT: cytokine 10 ng/ml
# [2] = system: Naive cord blood CD4+ T cells; assay: Th17 cell polarization of naive cord blood CD4+ T cells in serum-free media (intracellular and surface staining: IL-17, IL-22, FOXP3, CCR6); conditions: for suppression of TGF-β-induced FOXP3 expression: added to TGF-β
# Experimental: Blood samples were obtained from the New York Blood Center. Mononuclear cells were prepared from buffy coats of healthy adult donors or from cord blood on FicollPAQUE gradients. CD4^+ T cells were isolated on an autoMACS Pro using Miltenyi bead depletion of CD14^+ and CD25^+ cells followed by positive selection of CD4^+ cells. […] Adult CD4^+ T cell subsets and naive cord blood CD4^+ T cells were further purified respectively as CD3^+CD4^+CD25^−CD45RO^−/+ and CD3^+CD4^+CD25^−HLA-DR^−CD45RA^+ by cell sorting on a FACSAria.
# (§1) Cells were cultivated in either RPMI1640 (Invitrogen) supplemented with 10% fetal bovine serum (Hyclone), penicillin-streptomycin, 2 mM glutamine, 10 mM HEPES, 1 mM pyruvate and 0.1 mM non-essential amino acids or serum-free XVIVO-20 (Lonza) supplemented with penicillin-streptomycin in a 37° C. 5% CO2 incubator. CD4^+ T cells were stimulated by addition of anti-mouse IgG magnetic beads (Pierce) previously coated with purified anti-CD3 and anti-CD28 at final concentrations of 1 bead/cell and 1 μg/ml of each antibody. […] Lentiviral supernatants were added at an MOI ranging from 1 to 10. […] For the shRNA experiment, puromycin was added at day 2 at 2 μg/ml. For polarization experiments, cells were seeded at a concentration of 5×10^5 to 10^6 cells/ml in U-bottom 96 well plates with anti-CD3/CD28 coated beads. […] For long-term experiments, cells were split as needed. […] Cells were harvested at day 6 for intracellular staining and real-time PCR analysis except where specified otherwise.
# For intracellular cytokine staining, cells were incubated for 5 hours with 50 ng/ml PMA (Sigma), 500 ng/ml Ionomycin (Sigma), and GolgiStop (BD). Surface staining was performed by incubation with the corresponding fluorescently labeled antibodies for 15 min on ice. Intracellular staining was performed using the Cytofix/Cytoperm buffer set (BD). Briefly, cells were fixed and permeabilized for 30 min at room temperature and stained in permeabilization buffer for 30 min at room temperature. Flow cytometric measures were performed on a LSR II (BD Biosciences) instrument and analyzed using FlowJo software (Tree Star Inc.). Antibodies are detailed in Table 1. FOXP3 was stained using FOXP3 staining buffers (eBioscience). The present inventors used the FJK-16s antibody, which was originally reported as an anti-mouse/rat FoxP3 antibody.
# [3] = system: naive CD45RO−CD25−CCR7+ T cells; assay: IL-17 production in sorted adult blood naive CD4+ T cells cultured with or without IL-1β in serum-containing media (intracellular staining); conditions: day 6
# Experimental: (§2) Blood samples were obtained from the New York Blood Center. Mononuclear cells were prepared from buffy coats of healthy adult donors or from cord blood on FicollPAQUE gradients. CD4^+ T cells were isolated on an autoMACS Pro using Miltenyi bead depletion of CD14^+ and CD25^+ cells followed by positive selection of CD4^+ cells. Cord blood CD4^+ T cells were >97% pure and 100% CD45RA^+ and were used as such for initial transduction experiments. Adult CD4^+ T cell subsets and naive cord blood CD4^+ T cells were further purified respectively as CD3^+CD4^+CD25^−CD45RO^−/+ and CD3^+CD4^+CD25^−HLA-DR^−CD45RA^+ by cell sorting on a FACSAria.
# (§3) Cells were cultivated in either RPMI1640 (Invitrogen) supplemented with 10% fetal bovine serum (Hyclone), penicillin-streptomycin, 2 mM glutamine, 10 mM HEPES, 1 mM pyruvate and 0.1 mM non-essential amino acids or serum-free XVIVO-20 (Lonza) supplemented with penicillin-streptomycin in a 37° C. 5% CO2 incubator. […]
# (§4) For intracellular cytokine staining, cells were incubated for 5 hours with 50 ng/ml PMA (Sigma), 500 ng/ml Ionomycin (Sigma), and GolgiStop (BD). […] Flow cytometric measures were performed on a LSR II (BD Biosciences) instrument and analyzed using FlowJo software (Tree Star Inc.). […]
# [4] = system: memory CD45RO+CD25−CCR6+CD4+ T cells; assay: IL-17 production in sorted adult blood memory CD4+ T cells cultured with or without IL-1β in serum-containing media (intracellular staining); conditions: day 6
# Experimental: as §2, §3, §4
# [5] = system: Naive cord blood CD4+ T cells; assay: mRNA levels of Th17 markers (IL17, IL26, IL17F, RORC, RORA, IL23R) during Th17 cell differentiation of naive cord blood CD4+ T cells (real-time PCR); conditions: day 6; for IL-17F expression / IL-23R expression: cytokine alone (with IL-2)
# Experimental: as §2, §1
# (§5) RNA was extracted by TRIZOL (Invitrogen) and cDNA was synthesized with Superscript II (Invitrogen) and random primers. cDNA was analyzed by real-time quantitative PCR in triplicates by using iQ CYBR Green Supermix (Bio-Rad) or QuantiTect Multiplex PCR mix (Qiagen) in the iCycler Sequence Detection System (Bio-Rad). The starting quantity (SQ) of the initial cDNA sample was calculated from primer-specific standard curves by using the iCycler Data Analysis Software. The expression level of each gene was normalized to beta-actin expression level using the standard curve method. Fold changes were calculated by normalizing to the first sample of each set. Error bars were calculated based on triplicate measurements of each gene. The primer sets for real-time PCR are detailed in Table 2.
# RORC = RORC expression in CD45RO− adult naive CD4+ T cells cultivated with cytokines (real-time PCR); conditions: cytokine alone
# Experimental: as §2, with “FACSAria. […]” for “FACSAria.”
# as §5, with “The expression level of each gene was normalized to beta-actin expression level using the standard curve method.” left out, “The primer sets for real-time PCR are detailed in Table 2.” left out
# [6] = increasing concentration of TGF-β, day 6
molecule,measurement,setting,value
"IL-6: cytokine, 10 ng/ml IL-6 (eBioscience)",effect on the suppression of IL-17 production induced by TGF-β,[1],partially relieved
same,increase of the proportion of IL-17-producing cells after forced expression of RORγT,[1]; day 6,about two-fold
same,suppression of TGF-β-induced FOXP3 expression,[2]; day 6,able to inhibit
same,induction of IL-17,"[2]; both IL-1β and TGF-β included, day 6","active, albeit not as strongly as IL-23"
same,induction of IL-17,[2]; combined with TGF-β alone,failed to induce
"IL-1β: cytokine, 10 ng/ml IL-1β (eBioscience)",effect on IL-17 production,[3],no effect
same,effect on the suppression of IL-17 production induced by TGF-β,[1],partially relieved
same,increase of the proportion of IL-17-producing cells after forced expression of RORγT,[1]; day 6,about two-fold
same,suppression of TGF-β-induced FOXP3 expression,[2]; day 6,not
same,increase of IL-17 production,[4],two-fold
same,IL-17F expression,[5],Some expression
same,IL-23R expression,[5],not
soluble IL-21R: neutralizing soluble IL-21R (R&D) [reference compound],effect on IL-17 expression,"[2]; IL-23+IL-1β+IL-2+TGF-β, at levels that inhibited STAT3 phosphorylation, day 6",no effect
"TGF-β: cytokine, TGF-β1 (PeproTech)",effect on IL-17 production after forced expression of RORγT,"[1]; various concentrations of TGF-β, day 6",potently suppressed
same,RORγT (RORC) expression,RORC,induced dose-dependent RORγT expression
same,CCR6 cell surface expression,"[2]; TGF-β alone, day 6",induced
same,FOXP3 expression,[2]; [6],induced
same,IL-22 expression,[2]; [6],progressively inhibited
same,RORA expression,[5],slightly induced
same,levels of IL-26 mRNA,[5],increased with the dose
same,RORC expression,[5]; increasing concentrations of TGF-β,gradually induced
"IL-23: cytokine, 10 ng/ml IL-23 (eBioscience) (protein, UniProt Q9NPF7 20-189; P29460 23-328, looked up) Interleukin-23 subunit alpha: RAVPGGSSPAWTQCQQLSQKLCTLAWSAHPLVGHMDLREEGDEETTNDVPHIQCGDGCDPQGLRDNSQFCLQRIHQGLIFYEKLLGSDIFTGEPSLLPDSPVGQLHASLLGLSQLLQPEGHHWETQQIPSLSPSQPWQRLLLRFKILRSLQAFVAVAARVFAHGAATLSP Interleukin-12 subunit beta: IWELKKDVYVVELDWYPDAPGEMVVLTCDTPEEDGITWTLDQSSEVLGSGKTLTIQVKEFGDAGQYTCHKGGEVLSHSLLLLHKKEDGIWSTDILKDQKEPKNKTFLRCEAKNYSGRFTCWWLTTISTDLTFSVKSSRGSSDPQGVTCGAATLSAERVRGDNKEYEYSVECQEDSACPAAEESLPIEVMVDAVHKLKYENYTSSFFIRDIIKPDPPKNLQLKPLKNSRQVEVSWEYPDTWSTPHSYFSLTFCVQVQGKSKREKKDRVFTDKTSATVICRKNASISVRAQDRYYSSSWSEWASVPCS",suppression of TGF-β-induced FOXP3 expression,[2]; day 6,able to suppress
same,IL-17F expression,[5],no effect
same,IL-23R expression,[5],induced to some extent
